Data published in article PMC7351026, “Serum Half-Lives for Short- and Long-Chain Perfluoroalkyl Acids after Ceasing Exposure from Drinking Water Contaminated by Firefighting Foam” (Environmental Health Perspectives, 2020).

What was measured:
[1] = Individual serum elimination rate and half-life (linear regression per employee); settings: individual estimate;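 on HL (half-life): half-life in years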
Method in brief: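 One-compartment, first-order model: for each employee and PFAS, the slope β of log serum concentration versus elapsed days (from clean water supply, over five samplings) gave k = −β and half-life = ln2/k. A positive slope left the half-life undetermined.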

[2] = PFAS levels in serum samples of airport employees (LC/MS/MS)
Method in brief: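 LC/MS/MS quantification (BEH C18, 5 mM ammonium acetate water:methanol to methanol gradient) after protein precipitation of 25 μL serum with isotopically labeled internal standards, FBS-matrix calibration. Samples stored at −80°C, collected at monthly intervals from September 2018 and run together in a single batch.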

[3] = 1st sampling (September 2018), count 17
[4] = 2nd sampling (October 2018), count 17
[5] = 3rd sampling (November, 2018), count 17
[6] = 4th sampling (December 2018), count 16
[7] = 5th sampling (January 2019), count 16
[8] = first serum samples, all 26 airport employees
[9] = median of first serum samples, all 26 airport employees

## O=S(=O)(O)C(F)(F)C(F)(F)C(F)(F)C(F)(F)C(F)(F)F [PFPeS, perfluoropentane sulfonic acid]
[1]; subject 1, 5 samples
  Elimination rate: 0.7 yearly
  HL (half-life): 1.0 year
[1]; subject 2, 5 samples
  Elimination rate: 0.6 yearly
  HL (half-life): 1.2 year
[1]; subject 3, 5 samples
  Elimination rate: 0.7 yearly
  HL (half-life): 0.9 year
[1]; subject 4, 5 samples
  Elimination rate: 0.8 yearly
  HL (half-life): 0.8 year
[1]; subject 5, 5 samples
  Elimination rate: 0.4 yearly
  HL (half-life): 1.7 year
[1]; subject 6, 4 samples
  Elimination rate: 0.9 yearly
  HL (half-life): 0.7 year
[1]; subject 7, 5 samples
  Elimination rate: 0.7 yearly
  HL (half-life): 0.9 year
[1]; subject 8, 5 samples
  Elimination rate: 0.5 yearly
  HL (half-life): 1.4 year
[1]; subject 9, 5 samples
  Elimination rate: 0.7 yearly
  HL (half-life): 1.0 year
[1]; subject 10, 5 samples
  Elimination rate: 0.6 yearly
  HL (half-life): 1.2 year
[1]; subject 11, 5 samples
  Elimination rate: 2.0 yearly
  HL (half-life): 0.3 year
[1]; subject 12, 5 samples
  Elimination rate: 1.1 yearly
  HL (half-life): 0.6 year
[1]; subject 13, 5 samples
  Elimination rate: 0.8 yearly
  HL (half-life): 0.9 year
[1]; subject 14, 4 samples
  Elimination rate: 1.2 yearly
  HL (half-life): 0.6 year
[1]; subject 15, 5 samples
  Elimination rate: 2.5 yearly
  HL (half-life): 0.3 year
[1]; subject 16, 5 samples
  Elimination rate: 0.4 yearly
  HL (half-life): 1.6 year
[1]; subject 17, 5 samples
  Elimination rate: 2.4 yearly
  HL (half-life): 0.3 year
[2]; [3]
  Serum PFAS level, 25 percentile: 5.8
  Serum PFAS level, 75 percentile: 13
  Serum PFAS level, Max: 17
  Serum PFAS level, Median: 7.6
  Serum PFAS level, Min: 3.6
[2]; [4]
  Serum PFAS level, 25 percentile: 4.9
  Serum PFAS level, 75 percentile: 11
  Serum PFAS level, Max: 14
  Serum PFAS level, Median: 6.8
  Serum PFAS level, Min: 2.3
[2]; [5]
  Serum PFAS level, 25 percentile: 4.4
  Serum PFAS level, 75 percentile: 11
  Serum PFAS level, Max: 14
  Serum PFAS level, Median: 6.3
  Serum PFAS level, Min: 2.1
[2]; [6]
  Serum PFAS level, 25 percentile: 4.0
  Serum PFAS level, 75 percentile: 11
  Serum PFAS level, Max: 14
  Serum PFAS level, Median: 6.5
  Serum PFAS level, Min: 1.8
[2]; [7]
  Serum PFAS level, 25 percentile: 4.4
  Serum PFAS level, 75 percentile: 9.9
  Serum PFAS level, Max: 13
  Serum PFAS level, Median: 6.2
  Serum PFAS level, Min: 1.9
[2]; all 26 airport employees
  Serum level in the first samples, median (range): 6.9 (1.4–17) ng/mL
[2]; employees participated in first blood sampling and repeated blood and urine sampling, N=17
  PFAS in first serum sample, median (range): 7.6 (3.6–17) ng/mL
[2]; employees participated in first blood sampling only, N=9, 11-14 d after end of exposure
  PFAS in first serum sample, median (range): 3.5 (1.4–11) ng/mL
[2]; exposed employees 5 months after exposure ceased
  Serum level, median: 6.22 ng/mL
[2]; females (N=7)
  Initial serum PFAS level, max: 15 ng/mL
  Initial serum PFAS level, median: 5.1 ng/mL
  Initial serum PFAS level, min: 3.5 ng/mL
[2]; [8]
  Relative composition of PFAS in serum, molar concentration basis: 7.3%
  Relative composition of PFAS in serum, weight basis: 6.3%
[2]; males (N=19)
  Initial serum PFAS level, Max: 17 ng/mL
  Initial serum PFAS level, Min: 1.4 ng/mL
  Initial serum PFAS level, median: 7.2 ng/mL
[2]; [9]
  Serum concentration, molar basis: 0.020
  Serum concentration, weight basis: 6.9
[2]; second to fifth samplings, 17 airport employees
  Serum level, median (range): 6.5 (1.8–14) ng/mL
